# Source: PMC7673538 (PLoS Biology, 2020)
# Where “and” joins values, the source holds several entries; their conditions need not be identical. Identical values can stand only once. Like-named read-outs stand apart in the source and are kept apart here.
# Columns and labels:
# PV-1 = assay: microbe, parasite or virus in culture; type: cell-based, poliovirus 1; details: for EC50: Enterovirus C
# CV-B3 = assay: microbe, parasite or virus in culture; type: cell-based, coxsackievirus B3; details: Enterovirus B, CVB3, BGM
# human DAT = target: T1, human DAT (Homo sapiens, UniProt Q01959); type: cell-based; details: for DAT, Mean (Figure 8B): Control = 100; for DAT, Mean as % (Figure 8B): Control = 100%; for inhibition of DAT function (in words): HEK293 cells expressing human DAT, 1 μM or 100 μM
# T1 construct: expressed in transfected cells; host or cells: HEK293 (gift of Dr. Hoener, F. Hoffmann-La Roche)
# in vitro = details: human
# HRV-A2 = type: cell-based, human rhinovirus
# [1] = tested on: all representative viruses; type: cell-based
# Rluc-CV-B3 = type: cell-based; details: Fig 3B
# T1 sequence (Q01959 whole entry): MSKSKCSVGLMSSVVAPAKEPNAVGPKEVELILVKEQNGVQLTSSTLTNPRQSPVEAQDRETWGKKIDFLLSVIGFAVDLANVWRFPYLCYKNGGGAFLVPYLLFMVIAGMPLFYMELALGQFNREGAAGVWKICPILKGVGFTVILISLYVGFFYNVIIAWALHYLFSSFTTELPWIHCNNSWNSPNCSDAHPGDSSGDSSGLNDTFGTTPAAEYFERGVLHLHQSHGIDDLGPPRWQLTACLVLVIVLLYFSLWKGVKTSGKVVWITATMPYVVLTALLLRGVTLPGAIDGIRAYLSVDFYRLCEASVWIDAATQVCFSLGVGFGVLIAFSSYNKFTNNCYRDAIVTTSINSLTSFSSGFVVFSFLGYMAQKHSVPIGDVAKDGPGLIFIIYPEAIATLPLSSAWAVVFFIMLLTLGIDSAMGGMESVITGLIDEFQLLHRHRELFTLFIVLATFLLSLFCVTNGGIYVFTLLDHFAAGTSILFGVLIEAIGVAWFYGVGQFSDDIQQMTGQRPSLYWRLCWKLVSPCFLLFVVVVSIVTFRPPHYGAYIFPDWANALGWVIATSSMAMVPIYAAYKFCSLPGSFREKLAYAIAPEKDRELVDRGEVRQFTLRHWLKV
Compound,"EC50 (PV-1; HeLa R19, read-out: EC50 Exp1) [µM]","EC50 (PV-1; HeLa R19, read-out: EC50 Exp2) [µM]","EC50 (PV-1; HeLa R19, read-out: EC50 PV-1) [µM]",EC50 (CV-B3; read-out: EC50 BGM Average) [µM],EC50 (CV-B3; read-out: Exp 1 EC50 BGM) [µM],EC50 (CV-B3; read-out: Exp 2 EC50 BGM) [µM],"DAT, Mean (Figure 8B) (human DAT; 1µM)","DAT, Mean as % (Figure 8B) (human DAT; 1µM) [%]","DAT, Mean (Figure 8B) (human DAT; 100µM)","DAT, Mean as % (Figure 8B) (human DAT; 100µM) [%]",inhibition of DAT function (in words) (human DAT),CC50 (in vitro; CC50 Average) [µM],CC50 (in vitro; CC50 HelaR19 Average) [µM],CC50 (in vitro; Exp 1 CC50) [µM],CC50 (in vitro; Exp 1 CC50 HelaR19) [µM],CC50 (in vitro; Exp2 CC50) [µM],CC50 (in vitro; Exp 2 CC50 HelaR19) [µM],"Figure 7 dose-response raw data, PV-1 (triplicate values) (PV-1; Concentration 0.0046 µM)","Figure 7 dose-response raw data, PV-1 (triplicate values) (PV-1; Concentration 0.0137 µM)","virus titer, TCID50/ml (Figure 2A) (HRV-A2; compound concentration 3 µM)",also measured
"O=C(c1ccco1)N(Cc1ccc(F)cc1)c1ccccc1 [Compound 19b, N-(4-Fluorobenzyl)-N-phenylfuran-2-carboxamide]",8.5,9.65,9.08 ± 0.54,0.14,0.18,0.09,94.861,95,75.9783,76,"neither 12a, 19b, 19d, nor the combined compound 12b inhibited",> 30,> 100,> 30,> 100,> 30,> 100,,,,
"COc1ccc(N(Cc2ccc(F)cc2)C(=O)c2cc[nH]c2)cc1 [Compound 12a, N-(4-Fluorobenzyl)-N-(4-methoxyphenyl)-1H-pyrrole-3-carboxamide]",3.89,3.53,3.71 ± 0.18,0.035,0.02,0.05,80.4016,80,86.9569,87,"neither 12a, 19b, 19d, nor the combined compound 12b inhibited",> 30,> 100,> 30,> 100,> 30,> 100,10.497 and 11.7005 and 9.1598,10.497 and 11.7005 and 9.1598,354813 TCID50/ml,"Figure 7 dose-response raw data, PV-1 (triplicate values) (PV-1; Concentration 0.0412 µM): 10.7644 and 8.357 and 9.1598; Figure 7 dose-response raw data, PV-1 (triplicate values) (PV-1; Concentration 0.1235 µM): 13.4388 and 8.357 and 9.294; Figure 7 dose-response raw data, PV-1 (triplicate values) (PV-1; Concentration 0.3704 µM): 10.497 and 11.7005 and 9.1598; Figure 7 dose-response raw data, PV-1 (triplicate values) (PV-1; Concentration 1.1111 µM): 10.7644 and 8.357 and 9.1598; Figure 7 dose-response raw data, PV-1 (triplicate values) (PV-1; Concentration 3.3333 µM): 13.4388 and 8.357 and 9.294; Figure 7 dose-response raw data, PV-1 (triplicate values) (PV-1; Concentration 100 µM): 99.781 and 98.9928 and 101.358; EC50 (CV-B3): 0.04 ± 0.02 µM; virus titer, TCID50/ml (Figure 2A) (HRV-A2; compound concentration 100 µM): 737.962 TCID50/ml and 467.735 TCID50/ml and 500 TCID50/ml; inhibition in single-cycle viral replication assay (in words) [1]: inhibited all representative viruses; resistance profile against Rluc-CV-B3 2C mutants (in words) (Rluc-CV-B3): resembled that of the parental compound 1 and (S)-fluoxetine; cytotoxic effect in parallel to single-cycle assay (in words) (HeLa R19 cells): none of them showed any cytotoxic effect"
"O=C(c1ccco1)N(Cc1ccc(C(F)(F)F)cc1)c1ccccc1 [Compound 19d, N-phenyl-N-(4-(trifluoromethyl)benzyl)furan-2-carboxamide]",21,22.1,21.5 ± 0.54,0.38,0.44,0.32,99.9783,76,90.1191,90,"neither 12a, 19b, 19d, nor the combined compound 12b inhibited",> 30,93.7,> 30,92.3,> 30,95,,,354813 TCID50/ml and 588844 TCID50/ml,"virus titer, TCID50/ml (Figure 2A) (HRV-A2; compound concentration 0.01 µM): 354813 TCID50/ml; virus titer, TCID50/ml (Figure 2A) (HRV-A2; compound concentration 1 µM): 169824 TCID50/ml and 188844 TCID50/ml; virus titer, TCID50/ml (Figure 2A) (HRV-A2; compound concentration 30 µM): 1316.23 TCID50/ml and 1316 TCID50/ml; inhibition in single-cycle viral replication assay (in words) [1]: inhibited all representative viruses; cytotoxic effect in parallel to single-cycle assay (in words) (HeLa R19 cells): none of them showed any cytotoxic effect; Cytotoxicity values, % compared to DMSO (Figure 2B) (HeLa R19 cells; compound concentration 0.01 µM): 101.341%"
"COc1ccc(N(Cc2ccc(F)cc2)C(=O)c2ccco2)cc1 [Compound 1, N-(4-fluorobenzyl)-N-(4-methoxyphenyl)furan-2-carboxamide]",,,> 30,1.66,1.43,1.89,,,,,,> 30,43.9,> 30,40.4,> 30,47.4,10.497 and 8.759 and 8.625,10.497 and 8.759 and 8.625,354813 TCID50/ml,"Figure 7 dose-response raw data, PV-1 (triplicate values) (PV-1; Concentration 0.0412 µM): 10.497 and 11.7005 and 9.1598; Figure 7 dose-response raw data, PV-1 (triplicate values) (PV-1; Concentration 0.1235 µM): 10.7644 and 8.357 and 9.1598; Figure 7 dose-response raw data, PV-1 (triplicate values) (PV-1; Concentration 0.3704 µM): 13.4388 and 8.357 and 9.294; Figure 7 dose-response raw data, PV-1 (triplicate values) (PV-1; Concentration 1.1111 µM): 13.4388 and 8.357 and 9.294; Figure 7 dose-response raw data, PV-1 (triplicate values) (PV-1; Concentration 3.3333 µM): 10.497 and 11.7005 and 9.1598; Figure 7 dose-response raw data, PV-1 (triplicate values) (PV-1; Concentration 11.1111 µM): 10.7644 and 8.357 and 9.1598; Figure 7 dose-response raw data, PV-1 (triplicate values) (PV-1; Concentration 33.3333 µM): 13.4388 and 8.357 and 9.294; Figure 7 dose-response raw data, PV-1 (triplicate values) (PV-1; Concentration 100 µM): 9.294 and 9.1598; EC50 (PV-1; HeLa R19, read-out: EC50 PV-1 Average): > 30 µM; EC50 (PV-1; HeLa R19, read-out: EC50 PV-1 Experiement 3): > 30 µM; EC50 (PV-1; HeLa R19, read-out: EC50 PV-1 Experiment 1): > 30 µM; EC50 (PV-1; HeLa R19, read-out: EC50 PV-1 Experiment 2): > 30 µM; virus titer, TCID50/ml (Figure 2A) (HRV-A2; compound concentration 0.1 µM): 316278 TCID50/ml and 312278 TCID50/ml; virus titer, TCID50/ml (Figure 2A) (HRV-A2; compound concentration 0.3 µM): 169824 TCID50/ml and 100000 TCID50/ml; virus titer, TCID50/ml (Figure 2A) (HRV-A2; compound concentration 100 µM): 169824 TCID50/ml and 188844 TCID50/ml; virus titer, TCID50/ml (Figure 2A) (HRV-A2; compound concentration 150 µM): 354813 TCID50/ml and 588844 TCID50/ml; CC50 (in vitro; CC50): > 30 µM; CC50 (in vitro; CC50 Experiement 3): > 30 µM; CC50 (in vitro; CC50 Experiment 1): > 30 µM; CC50 (in vitro; CC50 Experiment 2): > 30 µM"
